Type in all cases: functional, cell-based
Assay [1] has as its target Sphingosine 1-phosphate receptor Edg-5/Sphingosine 1-phosphate receptor Edg-3 (Homo sapiens) (UniProt O95136+Q99500). Put plainly: Agonist activity at S1P2/3 receptor in HEK293 cells assessed as inhibition of forskolin-induced cAMP level after 1 hr by alphascreen immunoassay.
In assay [2] the target is T1, Apelin receptor (Homo sapiens) (UniProt P35414).
T1 sequence (whole entry): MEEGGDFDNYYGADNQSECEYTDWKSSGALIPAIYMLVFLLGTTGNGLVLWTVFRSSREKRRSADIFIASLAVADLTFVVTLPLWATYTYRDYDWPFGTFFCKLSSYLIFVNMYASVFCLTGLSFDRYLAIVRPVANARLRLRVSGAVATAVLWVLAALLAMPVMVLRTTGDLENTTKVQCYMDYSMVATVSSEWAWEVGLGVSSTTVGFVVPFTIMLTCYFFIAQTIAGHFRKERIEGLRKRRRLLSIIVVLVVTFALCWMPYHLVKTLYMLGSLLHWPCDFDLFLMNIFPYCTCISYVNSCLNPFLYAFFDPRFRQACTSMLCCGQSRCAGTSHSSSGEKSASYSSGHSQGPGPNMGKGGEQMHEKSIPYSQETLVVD
Put plainly: Agonist activity at APJ receptor in HEK293 cells assessed as inhibition of forskolin-induced cAMP level incubated for 5 mins prior to forskolin challenge measured after 30 mins by TR-FRET assay relative to [pyr1]-apelin-13.

A further assay concerns the target T2, Apelin receptor (Homo sapiens, UniProt P35414).
T2 sequence (P35414 whole entry): T1 sequence (whole entry)
The assay is described as follows: Agonist activity at APJ receptor in HEK293 cells assessed as inhibition of forskolin-induced cAMP level incubated for 5 mins prior to forskolin challenge measured after 30 mins by TR-FRET assay.

Calls of active or inactive are those of the source. No cut-off for these calls is given here. Residues, ends and D or L forms follow the SMILES beside them. *: point of attachment. Palmitoyl = CCCCCCCCCCCCCCCC(=O)*

Data on four molecules can be found in ChEMBL document CHEMBL3352267, “The design and implementation of a generic lipopeptide scanning platform to enable the identification of 'locally acting' agonists for the apelin receptor” (Bioorg Med Chem Lett, 2014).

In the case of `CCCCCCCCCCCCC/C=C/[C@@H](O)[C@@H](N)COP(=O)(O)O`, in assay [1], the result was Active.

With `CCCCCCCCCCCCCCCC(=O)N[C@H](C(=O)N[C@H](C(=O)N[C@@H](CC(C)C)C(=O)N1CCC[C@H]1C(=O)N[C@@H](CC(C)C)C(=O)N[C@@H](Cc1c[nH]c2ccccc12)C(=O)N[C@@H](C)C(=O)N[C@@H](C)C(=O)N[C@@H](Cc1ccc(O)cc1)C(=O)N[C@H](C(=O)N[C@@H](Cc1ccc(O)cc1)C(=O)N[C@@H](CCCNC(=N)N)C(N)=O)[C@@H](C)O)[C@@H](C)O)C(C)C` (Palmitoyl-VTLPLWAAYTYR-NH2), in assay [2], the %max came to 53.6%. For the same molecule, the EC50 on Apelin receptor turned out to be 21.5 nM.

For `CCCCCCCCCCCCCCCC(=O)N[C@H](C(=O)N[C@H](C(=O)N[C@@H](CC(C)C)C(=O)N1CCC[C@H]1C(=O)N[C@@H](CC(C)C)C(=O)N[C@@H](Cc1c[nH]c2ccccc12)C(=O)N[C@@H](C)C(=O)N[C@H](C(=O)N[C@@H](C)C(=O)N[C@H](C(=O)N[C@@H](Cc1ccc(O)cc1)C(=O)N[C@@H](CCCNC(=N)N)C(N)=O)[C@@H](C)O)[C@@H](C)O)[C@@H](C)O)C(C)C` (Palmitoyl-VTLPLWATATYR-NH2), in assay [2], the %max is 84.3%. Moreover, the EC50 on Apelin receptor was found to be 95.7 nM.

`CCCCCCCCCCCCCCCC(=O)N[C@H](C(=O)N[C@H](C(=O)N[C@@H](CC(C)C)C(=O)N1CCC[C@H]1C(=O)N[C@@H](CC(C)C)C(=O)N[C@@H](Cc1c[nH]c2ccccc12)C(=O)N[C@@H](C)C(=O)N[C@H](C(=O)N[C@@H](Cc1ccc(O)cc1)C(=O)N[C@H](C(=O)N[C@@H](C)C(=O)N[C@@H](CCCNC(=N)N)C(N)=O)[C@@H](C)O)[C@@H](C)O)[C@@H](C)O)C(C)C` (Palmitoyl-VTLPLWATYTAR-NH2): the %max in assay [2] was 62.5%. The EC50 on Apelin receptor amounted to 2.7 nM.
